Source: ChEMBL document CHEMBL5346876, “Hybrids of polyphenolic/quinone acids, the potential preventive and therapeutic drugs for PD: Disaggregate α-Syn fibrils, inhibit inclusions, and repair damaged neurons in mice” (Eur J Med Chem, 2023)
Activity calls are given as the source filed them. No cut-off for these calls is given here.

How the values were obtained:
H4 [1] = experiment: (§1) Antioxidant activity in H2O2-induced human H4 cells assessed as reduction in ROS generation ratio preincubated with H2O2 for 3 hrs followed by DCFH-DA addition for 30 mins and further incubated with compound and measured after 30 mins by DCFH-DA dye based fluorescence microplate reader analysis; assay type: functional, cell-based; conditions: dose 3-10 µM
H4 [2] = experiment: Antioxidant activity in H2O2-induced human H4 cells assessed as reduction in exogenous ROS level by measuring dark green fluorescence preincubated with H2O2 for 3 hrs followed by compound addition and measured after 30 mins by flow cytometric analysis; assay type: functional, cell-based
H4 [3] = experiment: Antioxidant activity in H2O2-induced human H4 cells assessed as reduction in endogenous ROS level by measuring green fluorescence preincubated with H2O2 for 3 hrs followed by compound addition and measured after 30 mins by flow cytometric analysis; assay type: functional, cell-based
[4] = Cytotoxicity against human H4 cells assessed as cell viability at 100 uM incubated for 48 hrs by CCK-8 assay relative to control; assay type: toxicity, cell-based; conditions: read-out: Activity
[5] = Cytotoxicity against human SH-SY5Y cells assessed as cell viability at 100 uM incubated for 48 hrs by CCK-8 assay relative to control; assay type: toxicity, cell-based; conditions: read-out: Activity
H4 [6] = experiment: as §1, with “as” for “as reduction in”, “scavenging at 10 uM” for “generation ratio”, “analysis relative to control” for “analysis”; assay type: functional; conditions: 0.5 h
Mus musculus [7] = experiment: Neuroprotective activity against 6-OHDA-induced lesioned C57 mouse model of Parkinson's disease assessed as protection of dopaminergic neuronal damage administered via right striatum and measured after 21 days; assay type: functional, organism-based; conditions: time 21.0 day
Mus musculus [8] = experiment: Neuroprotective activity against 6-OHDA-induced lesioned C57 mouse model of Parkinson's disease assessed as reduction of dopaminergic neuronal damage at 2.7 ug administered via right striatum and measured after 21 days; assay type: functional, organism-based; conditions: dose 2.7 µg, time 21.0 day
Mus musculus [9] = experiment: Neuroprotective activity against 6-OHDA-induced lesioned C57 mouse model of Parkinson's disease assessed as reduction in weight loss administered via right striatum and measured after 14 days; assay type: functional, organism-based; conditions: time 14.0 day
Mus musculus [10] = experiment: Neuroprotective activity against 6-OHDA-induced lesioned C57 mouse model of Parkinson's disease assessed as reduction in apomorphine-induced contralateral rotation by measuring decrease in turn number preadministered with compound for 14 days via right striatum and measured 30 mins after apomorphine addition by videotaping analysis relative to control; assay type: functional; set-up: scale not given: the % may be the effect or the level left; conditions: time 336.5 hrs
[11] = Toxicity in C57 mouse assessed as effect on time spend in rod administered via right striatum and measured after 14 days by rotarod test; conditions: in vivo, other, 336 h, time 14 day
Mus musculus [12] = experiment: Neuroprotective activity against 6-OHDA-induced lesioned C57 mouse model of Parkinson's disease assessed as improvement of weakened grip administered via right striatum and measured after 14 days by rotarod test; assay type: functional, organism-based; conditions: time 14.0 day
Mus musculus [13] = experiment: Neuroprotective activity against 6-OHDA-induced lesioned C57 mouse model of Parkinson's disease assessed as improvement of stiff limbs administered via right striatum and measured after 14 days by rotarod test; assay type: functional, organism-based; conditions: time 14.0 day
Mus musculus [14] = experiment: Neuroprotective activity against 6-OHDA-induced lesioned C57 mouse model of Parkinson's disease assessed as improvement of poor balance administered via right striatum and measured after 14 days by rotarod test; assay type: functional, organism-based; conditions: time 14.0 day
Mus musculus [15] = experiment: Neuroprotective activity against 6-OHDA-induced lesioned C57 mouse model of Parkinson's disease assessed as reduction in ipsilateral dopaminergic neuron damage in caudate putamen nucleus of brain administered via right striatum and measured after 21 days by immunofluorescence staining analysis; assay type: functional, organism-based; conditions: time 21.0 day
Mus musculus [16] = experiment: (§2) Neuroprotective activity against 6-OHDA-induced lesioned C57 mouse model of Parkinson's disease assessed as increase in survival of ipsilateral dopaminergic neuron in caudate putamen nucleus of brain by measuring tyrosine hydroxylase fluorescence intensity administered via right striatum and measured after 21 days by immunofluorescence staining analysis (reference value: 11.5 %); assay type: functional; conditions: time 21 day
Mus musculus [17] = experiment: as §2, with “substantia nigra pars reticulate” for “caudate putamen nucleus”, “9.7” for “11.5”; assay type: functional; conditions: time 21 day
[18] = Toxicity in C57 mouse assessed as effect on survival of ipsilateral dopaminergic neuron in substantia nigra pars reticulate of brain administered via right striatum and measured after 21 days by immunofluorescence staining analysis; conditions: in vivo, other, 504 h, time 21 day
[19] = Toxicity in C57 mouse assessed as effect on survival of ipsilateral dopaminergic neuron in caudate putamen nucleus of brain administered via right striatum and measured after 21 days by immunofluorescence staining analysis; conditions: in vivo, other, 504 h, time 21 day

Structure (SMILES) | Activity (H4 [1]) | viability at 48 h, 100 µM [4] | viability at 48 h, 100 µM [5] | Activity (H4 [6]) | other results
O=C(/C=C/c1cc(O)ccc1O)Nc1ccc(NC(=O)c2ccc(F)cc2F)cc1 | Dose-Dependent Effect | > 85% | > 85% |  | Activity (H4 [2]): Active; Activity (H4 [3]): Active
O=C(/C=C/c1cc(O)ccc1O)Nc1ccc(NC(=O)c2ccc(O)cc2)cc1 | Dose-Dependent Effect | > 85% | > 85% | 70% | 
O=C1C=CC(=O)C(/C=C/C(=O)Nc2ccc(NC(=O)c3ccc(F)c(F)c3)cc2)=C1 | Dose-Dependent Effect | > 85% | > 85% |  | 
O=C(/C=C/c1cc(O)ccc1O)Nc1ccc(NC(=O)/C=C/c2cc(O)ccc2O)cc1 | Dose-Dependent Effect | > 85% | > 85% | 70% | Activity (Mus musculus [7]): Dose-Dependent Effect; Activity (Mus musculus [8]): Active; Activity (Mus musculus [9]): Active; Activity (Mus musculus [10]): 87%; Time [11]: 264 s; Activity (Mus musculus [12]): Active; Activity (Mus musculus [13]): Active; Activity (Mus musculus [14]): Active; Activity (Mus musculus [15]): Active; Flu intensity (Mus musculus [16]): 66.2%; Flu intensity (Mus musculus [17]): 65.1%; Activity [18]: Non-Toxic; Activity [19]: Non-Toxic
O=C(/C=C/c1ccc(O)c(O)c1)Nc1ccc(NC(=O)c2ccc(F)cc2)cc1 | Dose-Dependent Effect |  |  | 70% | 
O=C1C=CC(=O)C(/C=C/C(=O)Nc2ccc(NC(=O)c3ccc(F)cc3F)cc2)=C1 | Dose-Dependent Effect | > 85% | > 85% |  | Activity (H4 [2]): Active; Activity (H4 [3]): Active
O=C1C=CC(=O)C(/C=C/C(=O)Nc2ccc(NC(=O)c3ccc(F)cc3)cc2)=C1 | Dose-Dependent Effect | > 85% | > 85% | 70% | 
